Measurements published in BindingDB's records for doi:10.7270/Q2F769ZM (The Scripps Research Institute Molecular Screening Center, 2007).
Where a name gives a salt, the structure may show the parent alone.

Each molecule was assayed against Rho-associated protein kinase 2 (Homo sapiens, UniProt O75116) (assay: ROCK2 kinase inhibitor potency, dose response, biochemical, Kinase-Glo luminescence, S6 peptide, 1536-well (AID 644)). Conditions: not given.
Sequence of Rho-associated protein kinase 2 (O75116 whole entry): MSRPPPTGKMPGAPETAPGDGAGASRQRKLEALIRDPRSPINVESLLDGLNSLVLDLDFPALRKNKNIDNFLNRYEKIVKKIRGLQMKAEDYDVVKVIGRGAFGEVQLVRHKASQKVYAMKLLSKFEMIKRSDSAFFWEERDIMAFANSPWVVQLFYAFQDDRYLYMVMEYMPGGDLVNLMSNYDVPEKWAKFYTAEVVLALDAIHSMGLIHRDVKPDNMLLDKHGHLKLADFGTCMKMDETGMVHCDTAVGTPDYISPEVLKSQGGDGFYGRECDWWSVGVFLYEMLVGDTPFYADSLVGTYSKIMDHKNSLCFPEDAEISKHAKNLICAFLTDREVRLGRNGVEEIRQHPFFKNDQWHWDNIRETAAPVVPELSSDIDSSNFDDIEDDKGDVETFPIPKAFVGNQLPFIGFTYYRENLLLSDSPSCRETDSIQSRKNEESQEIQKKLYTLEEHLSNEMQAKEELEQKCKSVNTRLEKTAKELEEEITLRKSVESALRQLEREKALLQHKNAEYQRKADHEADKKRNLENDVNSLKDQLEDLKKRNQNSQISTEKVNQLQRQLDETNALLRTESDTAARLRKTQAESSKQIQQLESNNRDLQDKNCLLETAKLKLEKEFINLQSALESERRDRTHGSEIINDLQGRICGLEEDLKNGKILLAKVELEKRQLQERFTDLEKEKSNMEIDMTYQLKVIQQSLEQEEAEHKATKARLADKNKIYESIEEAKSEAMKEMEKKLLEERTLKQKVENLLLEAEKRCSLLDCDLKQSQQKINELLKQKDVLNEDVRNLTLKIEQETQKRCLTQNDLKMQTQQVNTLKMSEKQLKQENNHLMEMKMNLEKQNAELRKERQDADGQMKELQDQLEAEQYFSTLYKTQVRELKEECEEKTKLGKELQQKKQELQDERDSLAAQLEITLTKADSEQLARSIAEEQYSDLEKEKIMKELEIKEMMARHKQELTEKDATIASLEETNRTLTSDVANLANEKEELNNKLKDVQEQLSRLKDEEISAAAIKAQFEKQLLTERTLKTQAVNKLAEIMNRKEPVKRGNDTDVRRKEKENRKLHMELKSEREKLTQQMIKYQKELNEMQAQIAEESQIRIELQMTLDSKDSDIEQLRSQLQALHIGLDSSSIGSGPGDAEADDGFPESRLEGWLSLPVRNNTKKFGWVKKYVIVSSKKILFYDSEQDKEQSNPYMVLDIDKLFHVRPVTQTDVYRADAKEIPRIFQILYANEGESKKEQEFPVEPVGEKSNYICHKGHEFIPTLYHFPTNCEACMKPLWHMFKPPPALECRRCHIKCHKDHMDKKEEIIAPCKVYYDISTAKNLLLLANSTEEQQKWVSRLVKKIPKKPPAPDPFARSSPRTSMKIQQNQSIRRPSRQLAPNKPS

Compound	IC50
Cn1c(CSCc2ccc(Cl)c(Cl)c2)nnc1SCC(=O)Nc1nccs1 [2-[(5-{[(3,4-dichlorobenzyl)thio]methyl}-4-methyl-4H-1,2,4-triazol-3-yl)thio]-N-1,3-thiazol-2-ylacetamide]	> 19.9 µM
N#CC1C(=N)Oc2cc(O)ccc2C1c1ccncc1 (centres undefined) [2-amino-7-hydroxy-4-(4-pyridyl)-4H-chromene-3-carbonitrile]	127 µM
CCCCc1c(C)nc(N)[nH]c1=O [2-azanyl-5-butyl-6-methyl-1H-pyrimidin-4-one]	> 59.6 µM
c1coc(CNc2ncnc3sc4c(c23)CCCCC4)c1 [2-furfuryl(6,7,8,9-tetrahydro-5H-cyclohepta[4,5]thieno[1,2-c]pyrimidin-4-yl)amine]	> 59.6 µM
O=c1ccc(=O)n2n1CC(O)C2 [2-hydroxy-2,3-dihydro-1H-pyrazolo[1,2-a]pyridazine-5,8-dione]	> 59.6 µM
O=C(O)c1cc(NCc2ccc3c(c2)OCO3)ccc1N1CCOCC1 [2-morpholino-5-(piperonylamino)benzoic acid]	> 59.6 µM
Fc1ccccc1Cn1nnc2c(-n3ccnc3)ncnc21 [3-(2-Fluoro-benzyl)-7-imidazol-1-yl-3H-[1,2,3]triazolo[4,5-d]pyrimidine]	> 19.9 µM
COc1ccc(CCC(=O)Nc2nc3c(s2)CN(C)CC3)cc1OC [3-(3,4-dimethoxyphenyl)-N-(5-methyl-6,7-dihydro-4H-[1,3]thiazolo[5,4-c]pyridin-2-yl)propanamide]	> 59.6 µM
COc1ccc2cc3c(N)c(C(=O)NCc4ccco4)sc3nc2c1 [3-Amino-7-methoxy-thieno[2,3-b]quinoline-2-carboxylic acid (furan-2-ylmethyl)-amide]	> 19.9 µM
COc1ccc2c(Cl)c(C(N)=O)sc2c1 [3-Chloro-6-methoxy-benzo[b]thiophene-2-carboxylic acid amide]	6.83 µM
CN(C(=O)c1cccc(-n2c(O)c3c(c2O)CC=CC3)c1)C1CCCCC1 [3-[1,3-bis(oxidanylidene)-3a,4,7,7a-tetrahydroisoindol-2-yl]-N-cyclohexyl-N-methyl-benzamide]	> 59.6 µM
Cc1cc(C(=O)CN2C(=O)NC3(CCCCC3)C2=O)c(C)n1Cc1ccc2c(c1)OCO2 [3-[2-(2,5-dimethyl-1-piperonyl-pyrrol-3-yl)-2-keto-ethyl]-1,3-diazaspiro[4.5]decane-2,4-quinone]	> 59.6 µM
COC(=O)c1sc2cnccc2c1N [3-amino-2-thieno[2,3-c]pyridinecarboxylic acid methyl ester]	8.3 µM
NC(=O)c1sc2nc3c(c(-c4ccco4)c2c1N)CCC3 [3-amino-4-(2-furyl)-6,7-dihydro-5H-cyclopenta[b]thieno[3,2-e]pyridine-2-carboxamide]	> 59.6 µM
c1cc2c(cc1Nc1nc(-c3ccc4c(c3)OCO4)cs1)OCCO2 [4-(1,3-benzodioxol-5-yl)-N-(2,3-dihydro-1,4-benzodioxin-6-yl)-1,3-thiazol-2-amine]	> 59.6 µM
c1nc(N2CCOCC2)c2nc[nH]c2n1 [4-(7H-purin-6-yl)morpholine]	7.09 µM

Compound	IC50
Cc1cccc(N2CCN(C(=O)c3cn(C)c(=O)c4c3c3ccccc3n4C)CC2)c1C [4-[4-(2,3-dimethylphenyl)piperazin-1-yl]carbonyl-2,9-dimethyl-pyrido[3,4-b]indol-1-one]	> 59.6 µM
CC(C)CCN1CC(C(=O)N2CCN(c3ccc(F)cc3)CC2)CC1=O (centres undefined) [4-[4-(4-fluorophenyl)piperazin-1-yl]carbonyl-1-(3-methylbutyl)pyrrolidin-2-one]	> 59.6 µM
c1ccc(OCCCc2nc(-c3ccncc3)no2)cc1 [4-[5-(3-phenoxypropyl)-1,2,4-oxadiazol-3-yl]pyridine]	> 59.6 µM
Cc1c2ccncc2c(C)c2c1[nH]c1ccccc12 [5,11-dimethyl-2H-pyrido[4,3-b]carbazole]	6.68 µM
Clc1ccccc1-c1nn2c(-c3ccncc3)nnc2s1 [6-(2-chlorophenyl)-3-(4-pyridinyl)[1,2,4]triazolo[3,4-b][1,3,4]thiadiazole]	> 59.6 µM
CCOC(=O)C1=C(CSc2nc(-c3ccncc3)ccc2C#N)OC(=N)C(C#N)C1c1cccnc1 (centres undefined) [6-amino-5-cyano-2-[[(3-cyano-6-pyridin-4-yl-2-pyridinyl)thio]methyl]-4-(3-pyridinyl)-4H-pyran-3-carboxylic acid ethyl ester]	> 19.9 µM
Oc1ncnc2cc(Cl)ccc12 [7-Chloro-quinazolin-4-ol]	> 19.9 µM
c1ccc2c(c1)[nH]c1cnccc12 [9H-pyrido[3,4-b]indole]	> 19.9 µM
Cc1cc(N2CCOCC2)c2c(N)c(C)cc(C)c2n1 [(2,6,8-trimethyl-4-morpholino-5-quinolyl)amine]	> 59.6 µM
Cc1onc(-c2ccccc2)c1C(=O)N1CCN(C/C=C/c2ccccc2)CC1 [(5-methyl-3-phenyl-1,2-oxazol-4-yl)-[4-[(E)-3-phenylprop-2-enyl]piperazin-1-yl]methanone;hydrochloride]	> 59.6 µM
COC(=O)c1cccc2c1-c1ccccc1C2N=O (centres undefined) [(9Z)-9-hydroximinofluorene-4-carboxylic acid methyl ester]	> 19.9 µM
Cc1ccccc1NC(=O)Cn1c(C)nc2ccc(NC(=O)C3CC3)cc2c1=O [Cyclopropanecarboxylic acid [2-methyl-4-oxo-3-(o-tolylcarbamoyl-methyl)-3,4-dihydro-quinazolin-6-yl]-amide]	> 59.6 µM
CC(C)[C@H]1C(=O)N2CCC[C@H]2[C@]2(O)O[C@](NC(=O)[C@@H]3C=C4c5cccc6[nH]cc(c56)C[C@H]4N(C)C3)(C(C)C)C(=O)N12 [ERGOCORNINE]	> 59.6 µM
Cc1[nH]c2ccccc2c1C1=CCNCC1 [MLS000045807]	9.63 µM
O=NCc1c[nH]c2ccccc12 [MLS000104363]	4.81 µM

More lines, now with the values ahead:

IC50	Compound
5.72 µM	CCc1cc2c(O)ncnc2s1 [MLS000029626]
> 59.6 µM	C(=Nc1nc2ccccc2n1CCN1CCCCC1)c1cccs1 [MLS000038975]
> 19.9 µM	CCCCCC(=O)Nc1ccc2oc(-c3ccncc3)nc2c1 [MLS000039066]
> 19.9 µM	O=C1NC(=O)c2cc(NC(=O)C3CCCCC3)ccc21 [MLS000062910]
> 59.6 µM	Cc1cc(NC(=O)CSc2nc(-c3ccccc3)cs2)no1 [MLS000066259]
> 59.6 µM	Cc1cc(=O)n(-c2ccccc2)[nH]1 [MLS000069602]
2.3 µM	CC(C)C(NC(=O)C1CCCCC1)C(=O)Nc1ccncc1 (centres undefined) [MLS000090506]
> 19.9 µM	Cc1cc(Cl)ccc1OCc1nnc(-c2ccc(O)cc2)[nH]1 [MLS000097369]
> 19.9 µM	N#Cc1cccc(NC(=O)CSc2ccccc2)c1 [MLS000099417]
7.91 µM	CN(CCO)c1ncnc2nc[nH]c12 [MLS000101269]
> 19.9 µM	CCCCC(=O)Nc1ccc2c(c1)C(=O)NC2=O [MLS000103070]
1.73 µM	O=C(Nc1ccncc1)C1CCCN(S(=O)(=O)c2cccc3cccnc23)C1 (centres undefined) [MLS000118826]
> 59.6 µM	Cn1c(C(=O)N2CCCC(C(=O)N3CCN(C(=O)c4ccco4)CC3)C2)cc2sccc21 (centres undefined) [MLS000119519]

Same assay, conditions: inactive by the depositor's call

Compound	IC50
N#Cc1cc2c(nc1SCc1ccncc1)CCC2 [2-(4-pyridylmethylthio)-1-pyrindan-3-carbonitrile]	20.5 µM
O=C(CSc1nc(-c2ccc(F)cc2)c[nH]1)Nc1cccc(O)c1 [2-[5-(4-Fluoro-phenyl)-1H-imidazol-2-ylsulfanyl]-N-(3-hydroxy-phenyl)-acetamide]	23.4 µM
NC(=O)c1c(-c2cccs2)csc1N [2-amino-4-(2-thienyl)thiophene-3-carboxamide]	19.5 µM
Cc1c(C(=O)N2CCCCC2)sc(N)c1C#N [2-amino-4-methyl-5-(piperidine-1-carbonyl)thiophene-3-carbonitrile]	86.7 µM
Clc1ccccc1-c1nnc2sc(-c3ccncc3)nn12 [3-(2-chlorophenyl)-6-(4-pyridyl)-[1,2,4]triazolo[3,4-b][1,3,4]thiadiazole]	79.1 µM
Cc1c(C(=O)Nc2ccc3oc(-c4cccnc4)nc3c2)oc2ccccc12 [3-Methyl-benzofuran-2-carboxylic acid (2-pyridin-3-yl-benzooxazol-5-yl)-amide]	1010 µM
Cc1ccc(S(=O)(=O)NCCCOC(=O)Nc2ccncc2)cc1 [3-[(4-methylphenyl)sulfonylamino]propyl N-pyridin-4-ylcarbamate]	20.6 µM
Cc1ccc(SCc2nc(-c3ccncc3)no2)cc1 [4-(5-{[(4-methylphenyl)thio]methyl}-1,2,4-oxadiazol-3-yl)pyridine]	42.6 µM
O=C(CCCOc1ccccc1)Nc1ccncc1 [4-Phenoxy-N-pyridin-4-yl-butyramide]	14.2 µM
Cc1ccc2c(c1)c1c3n2CCN(C(=O)Cn2c(-c4ccccc4)noc2=O)C3CCC1 (centres undefined) [4-[2-(8-Methyl-1,2,3a,4,5,6-hexahydro-pyrazino[3,2,1-jk]carbazol-3-yl)-2-oxo-ethyl]-3-phenyl-4H-[1,2,4]oxadiazol-5-one]	18.8 µM
COCCN(CCOC)S(=O)(=O)c1ccc(C(=O)Nc2nc(-c3ccncc3)cs2)cc1 [4-[bis(2-methoxyethyl)sulfamoyl]-N-(4-pyridin-4-yl-1,3-thiazol-2-yl)benzamide]	41.2 µM
CCC(=O)Nc1ccc(C(=O)Cn2nc(C(=O)O)c3ccccc3c2=O)cc1 [4-keto-3-[2-keto-2-(4-propionamidophenyl)ethyl]phthalazine-1-carboxylic acid]	11 µM
CC(=O)c1cc(C#N)c(SCc2ccncc2)nc1C [5-acetyl-6-methyl-2-(4-pyridylmethylthio)nicotinonitrile]	12.3 µM
O=C(Oc1cccc2c(=O)[nH]ccc12)c1ccccc1 [(1-oxo-2H-isoquinolin-5-yl) benzoate]	55.7 µM
O=C(NCc1ccc2c(c1)OCO2)c1ccc2snnc2c1 [Benzo[1,2,3]thiadiazole-5-carboxylic acid (benzo[1,3]dioxol-5-ylmethyl)-amide]	11.6 µM

Second part, the molecule after the results:

IC50	Compound
16.3 µM	O=C(c1ccccc1)c1ccc2[nH]cnc2c1 [MLS000034982]
18.8 µM	Cc1cc2c(ccc3[nH]onc32)n1 [MLS000038925]
445 µM	CCOC1(OCC)N=C(N)C2(C#N)C(c3ccc(NC(C)=O)cc3)C12C#N (centres undefined) [MLS000085499]
16.5 µM	COc1ccc(N2CCN(c3ncnc4[nH]cnc34)CC2)cc1 [MLS000101243]
31.8 µM	CN(C)c1ccc(-c2ccncc2)cc1 [MLS000105960]
